# Tests used:
# [1] = molecular target: T1, PAK4 Kinase domain (PAK4 KD) (Homo sapiens, UniProt O96013); assay: PAK4 kinase domain enzymatic assay (PK/LDH-coupled, Ki); format: biochemical; conditions: PAK4 Kinase Domain
# T1 construct: Cloning, expression, and purification of recombinant PAK4 Kinase domain (PAK4 KD); His tag (pET28a(+)/pET24a(+), Ni-NTA purification) (N, cleaved yes); GST (pGST4.5, glutathione column) (N, cleaved yes); made in house; host or cells: E. coli BL21(DE3)
# [2] = molecular target: T2, PAK4 kinase activity in whole cells (TR-293-KDG, modified HEK 293) (Homo sapiens, UniProt O96013); assay: PAK4 cellular assay: sandwich ELISA of PAK4-dependent phosphorylation of GEF-H1b in TR-293-KDG cells; format: cell-based; conditions: 3-hour exposure
# T2 construct: engineered to overexpress both GEF-H1b and the kinase domain (KD) of PAK4; expressed in transfected cells; host or cells: TR-293-KDG (modified HEK 293, Trex system, Invitrogen)
# T2 sequence (O96013 321-572 limits assumed): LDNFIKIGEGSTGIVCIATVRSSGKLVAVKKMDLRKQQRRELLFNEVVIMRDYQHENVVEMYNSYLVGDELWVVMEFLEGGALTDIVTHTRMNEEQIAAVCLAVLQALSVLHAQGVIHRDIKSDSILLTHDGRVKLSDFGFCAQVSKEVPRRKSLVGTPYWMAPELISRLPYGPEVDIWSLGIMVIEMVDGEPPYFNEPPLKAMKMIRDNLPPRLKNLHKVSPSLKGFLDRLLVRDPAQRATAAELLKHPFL
# Method: A sandwich ELISA method was used to measure the PAK4 kinase activity in whole cells. The level of PAK4-dependent phosphorylation of GEF-H1b can be determined by monitoring the binding of a phosphospecific antibody to GEF-H1b. […] The KD of PAK4 is inducible in this cell line by tetracycline (Trex system, Invitrogen). […] To establish a phosphorylation event on GEF-HL, cells are induced with doxycycline to express the PAK4 KD. […] Candidate substance effect is measured as the ability to block this phosphorylation event.
# ELISA plate was prepared by pre-coating the plates with a capture antibody (α-HA-tag mouse monoclonal antibody), blocked with BSA, and washed in 0.1% tween 20 in tris-buffered saline (TBST). […] Cells were then lysed with a modified RIPA buffer supplemented with protease inhibitors. […] Between all subsequent steps plates were washed 4 times with TBST. Detection antibody (recognizing the phospho-specific eptitope on GEF-H1b) was added for 1 hour, followed by addition of an enzyme linked goat α-rabbit secondary antibody for 45 minutes. […] EC50 values were calculated by sigmoid curve fitting using a four-parameter analysis.
# T1 sequence (O96013 321-572 limits assumed): as above
Ki [1],EC50 [2],SMILES
67.9 nM,423 nM,"CC1(C)c2[nH]nc(NC(=O)c3cc4ccccc4s3)c2CN1C(=O)N[C@H](CO)c1ccccc1 [Example 99, 3-[(1-benzothien-2-ylcarbonyl)amino]-N-[(1S)-2-hydroxy-1-phenylethyl]-6,6-dimethyl-4,6-dihydropyrrolo[3,4-c]pyrazole-5(1H)-carboxamide]"
143 nM,4 nM,"CN(C)C[C@@H](OC(=O)N1Cc2c(NC(=O)c3ccno3)n[nH]c2C1(C)C)c1ccccc1 [Example 85, (S)-2-(dimethylamino)-1-phenylethyl 3-(isoxazole-5-carboxamido)-6,6-dimethylpyrrolo[3,4-c]pyrazole-5(1H,4H,6H)-carboxylate]"
54.2 nM,34.7 nM,"CN(C)C[C@@H](NC(=O)N1Cc2c(NC(=O)c3ccc(F)cc3)n[nH]c2C1(C)C)c1ccccc1 [Example 47, N-[(1S)-2-(dimethylamino)-1-phenylethyl]-3-[(4-fluorobenzoyl)amino]-6,6-dimethyl-4,6-dihydropyrrolo[3,4-c]pyrazole-5(1H)-carboxamide]"
354 nM,200 nM,"C[C@@H](CN(C)C)OC(=O)N1Cc2c(NC(=O)c3ccccc3)n[nH]c2C1(C)C [Example 73, (1S)-2-(dimethylamino)-1-methylethyl 3-(benzoylamino)-6,6-dimethyl-4,6-dihydropyrrolo [3,4-c]pyrazole-5(1H)-carboxylate]"
108 nM,178 nM,"CC1(C)c2[nH]nc(NC(=O)c3cccs3)c2CN1C(=O)N[C@H](CO)c1ccccc1 [Example 100, N-[(1S)-2-hydroxy-1-phenylethyl]-6,6-dimethyl-3-[(2-thienylcarbonyl)amino]-4,6-dihydropyrrolo[3,4-c]pyrazole-5(1H)-carboxamide]"
110 nM,1510 nM,"CN(C)CC(CC(=O)N1Cc2c(NC(=O)c3cccs3)n[nH]c2C1(C)C)c1ccc(Cl)cc1 (stereo not shown) [Example 97, N-{5-[3-(4-chlorophenyl)-4-(dimethylamino)butanoyl]-6,6-dimethyl-1,4,5,6-tetrahydropyrrolo[3,4-c]pyrazol-3-yl}thiophene-2-carboxamide]"
73.2 nM,280 nM,"CN(C)C[C@@H](OC(=O)N1Cc2c(NC(=O)Cc3ccc(F)cc3)n[nH]c2C1(C)C)c1ccccn1 [Example 28, (1R)-2-(dimethylamino)-1-pyridin-2-ylethyl 3-{[(4-fluorophenyl)acetyl]amino}-6,6-dimethyl-4,6-dihydropyrrolo[3,4-c]pyrazole-5(1H)-carboxylate]"
11.3 nM,16 nM,"CN(C)C[C@@H](NC(=O)N1Cc2c(NC(=O)c3cccs3)n[nH]c2C1(C)C)c1ccccc1 [Example 57, N-[(1S)-2-(dimethylamino)-1-phenylethyl]-6,6-dimethyl-3-[(2-thienylcarbonyl)amino]-4,6-dihydropyrrolo[3,4-c]pyrazole-5(1H)-carboxamide]"
345 nM,167 nM,"COC[C@@H](CN(C)C)OC(=O)N1Cc2c(NC(=O)c3ccc(F)cc3)n[nH]c2C1(C)C [Example 77, (1R)-2-(dimethylamino)-1-(methoxymethyl)ethyl 3-[(4-fluorobenzoyl)amino]-6,6-dimethyl-4,6-dihydropyrrolo[3,4-c]pyrazole-5(1H)-carboxylate]"
156 nM,10 nM,"CN(C)C[C@@H](OC(=O)N1Cc2c(NC(=O)[C@H]3CCCO3)n[nH]c2C1(C)C)c1ccccc1 [Example 89, (S)-2-(dimethylamino)-1-phenylethyl 6,6-dimethyl-3-((R)-tetrahydrofuran-2-carboxamido)pyrrolo[3,4-c]pyrazole-5(1H,4H,6H)-carboxylate]"
122 nM,3.9 nM,"CN(C)CC(OC(=O)N1Cc2c(NC(=O)c3ccc(F)cc3F)n[nH]c2C1(C)C)c1ccccc1 (stereo not shown) [Example 23, 2-(dimethylamino)-1-phenylethyl 3-[(2,4-difluorobenzoyl)amino]-6,6-dimethyl-4,6-dihydropyrrolo[3,4-c]pyrazole-5(1H)-carboxylate]"
106 nM,2090 nM,"CN(C)C[C@H](Cc1ccccc1)OC(=O)N1Cc2c(NC(=O)c3ccccc3)n[nH]c2C1(C)C [Example 30, (1S)-1-benzyl-2-(dimethylamino)ethyl 3-(benzoylamino)-6,6-dimethyl-4,6-dihydropyrrolo[3,4-c]pyrazole-5(1H)-carboxylate]"
23.3 nM,28.3 nM,"CN(C)C[C@@H](OC(=O)N1Cc2c(NC(=O)Cc3ccc(F)cc3)n[nH]c2C1(C)C)c1ccccc1 [Example 18, (1S)-2-(dimethylamino)-1-phenylethyl 3-{[(4-fluorophenyl)acetyl]amino}-6,6-dimethyl-4,6-dihydropyrrolo[3,4-c]pyrazole-5(1H)-carboxylate]"
103 nM,315 nM,"CC(C)C[C@@H](CN(C)C)OC(=O)N1Cc2c(NC(=O)c3ccc(F)cc3)n[nH]c2C1(C)C [Example 36, (1S)-1-[(dimethylamino)methyl]-3-methylbutyl 3-[(4-fluorobenzoyl)amino]-6,6-dimethyl-4,6-dihydropyrrolo[3,4-c]pyrazole-5(H)-carboxylate]"
68 nM,14.6 nM,"CN(C)C[C@@H](OC(=O)N1Cc2c(NC(=O)c3ccc(F)cc3F)n[nH]c2C1(C)C)c1ccccc1 [Example 4, (1S)-2-(dimethylamino)-1-phenylethyl 3-[(2,4-difluorobenzoyl)amino]-6,6-dimethyl-4,6-dihydropyrrolo[3,4-c]pyrazole-5(1H)-carboxylate]"
43.2 nM,113 nM,"CN(C)CC(OC(=O)N1Cc2c(NC(=O)c3ccc(F)cc3)n[nH]c2C1(C)C)c1ccccc1F (stereo not shown) [Example 38, 2-(dimethylamino)-1-(2-fluorophenyl)ethyl 3-[(4-fluorobenzoyl)amino]-6,6-dimethyl-4,6-dihydropyrrolo[3,4-c]pyrazole-5(1H)-carboxylate]"
7.87 nM,67.8 nM,"COc1ccc(CC(=O)Nc2n[nH]c3c2CN(C(=O)O[C@H](CN(C)C)c2ccccc2)C3(C)C)cc1 [Example 19, (1S)-2-(dimethylamino)-1-phenylethyl 3-{[(4-methoxyphenyl)acetyl]amino}-6,6-dimethyl-4,6-dihydropyrrolo [3,4-c]pyrazole-5(1H)-carboxylate]"
314 nM,230 nM,"CC(=O)Nc1n[nH]c2c1CN(C(=O)O[C@H](CN(C)C)c1ccccc1)C2(C)C [Example 7, (1S)-2-(dimethylamino)-1-phenylethyl 3-(acetylamino)-6,6-dimethyl-4,6-dihydropyrrolo[3,4-c]pyrazole-5(1H)-carboxylate]"
510 nM,60 nM,"CN(C)C[C@@H](OC(=O)N1Cc2c(NC(=O)c3ccc(F)cc3F)n[nH]c2C1(C)C)C1CCCCC1 [Example 34, (1S)-1-cyclohexyl-2-(dimethylamino)ethyl 3-[(2,4-difluorobenzoyl)amino]-6,6-dimethyl-4,6-dihydropyrrolo[3,4-c]pyrazole-5(1H)-carboxylate]"

SMILES,Ki [1],EC50 [2]
"C[C@@H]([C@@H](OC(=O)N1Cc2c(NC(=O)c3ccc(F)cc3)n[nH]c2C1(C)C)c1ccccc1)N(C)C [Example 45, (1S,2S)-2-(dimethylamino)-1-phenylpropyl 3-[(4-fluorobenzoyl)amino]-6,6-dimethyl-4,6-dihydropyrrolo[3,4-c]pyrazole-5(1H)-carboxylate]",318 nM,21.1 nM
